Reference: paper PMC6208284 (Phytotherapy Research, 2018)

Columns and labels:
[1] = set-up: method as in Rappoport & Frankel, 1967; conditions: ref Rappoport & Frankel, 1967; cited from earlier work
[2] = system: Leishmania tarentolae promastigotes (LtP); experiment: Superoxide radical detection in LtP by CMH/ESR; type: cell-based; conditions: 5 μM, positive control, with DFO and DTPA
Description: Detection of superoxide radicals was performed using CMH as reaction partner and measuring the formed stable nitroxyl radicals by electron spin resonance (ESR) spectroscopy. Measurements were performed in PBS (136 mM NaCl, 1.15 mM KH2PO4, 14 mM Na2HPO4, and 2.7 mM KCl, pH 7.4) containing 15 mM glucose, 400 μM CMH, and 100 μM DFO (desferrioxamine mesylate) and 25 μM DTPA. Usually, these assays are performed in the presence of iron chelators (DFO and DTPA) to prevent CMH interaction with free Fe^3+ leading to CM^● unrelated to superoxide radicals. Before the measurements, LtP suspensions were washed twice with PBS to remove the medium. Typical experiments contained 5 × 10^8 LtP cells/ml. Stock solutions of EO compounds dissolved in DMSO were added. The influence of Asc (6–700 μM) on the CMH oxidation rate by LtP was assessed immediately and after prolonged incubation time (1 hr between Asc and CMH addition). The influence of iron‐dependent Asc activation in LtP on CMH oxidation was studied in the absence of iron chelators DFO and DTPA. Prior to the ESR measurement, 400 μM CMH was added. Afterwards, 17 μl of suspension was aspirated in gas‐permeable Teflon tubes (ID 0.7 mm). This capillary tube was placed in the resonator of the ESR instrument (Bruker EMX, split ring MD5, Germany), and 10 sequential measurements were performed. The following instrument settings were used: microwave frequency 9.682 GHz, modulation frequency 100 kHz, modulation amplitude 1 G, time constant 0.082 s, center field 3,446 G, scan rate 71 G/min, sweep width 100 G, scan time 84 s, and attenuation CMH: 7.96 × 10^3. From the ESR spectra, the middle peak intensity was retrieved, and concentrations of oxidized CMH were obtained by comparison with a standard curve prepared from 3‐carboxy‐proxyl solutions with defined concentrations. Four replicate measurements were performed for each condition.

[3] = system: Leishmania tarentolae promastigotes (LtP); experiment: Immediate mitochondrial uncoupling in LtP, OxoPlates with oligomycin; type: cell-based; conditions: positive control uncoupler, 0.7–5 μM, LtP + 5 μM Oligo
Description: U‐shaped 96‐well OxoPlates (OP96U PreSens, Germany) with integrated fluorescence oxygen sensors were used for parallel LtP experiments. Oxygen concentrations were measured using a PerkinElmer Enspire fluorescence plate reader using excitation wavelength 540 nm and two emission wavelengths (reference dye 590 nm, IRef, and O2‐sensing dye 650 nm, IInd). The oxygen concentration (μM O2) was calculated according to manufacturer's instructions as described previously (Monzote et al., 2016). Measurements with LtP were performed in air‐saturated BHI medium. […] Immediately before the measurement, 150 μl of well‐aerated cell suspensions (13 × 10^7 LtP per ml) was added to the respective wells. Finally, on the top of each well, 50 μl of paraffin oil was layered. Two minutes after mixing, the fluorescence measurements at 27 °C were started, and eight measurements at 5‐min intervals were performed. From the linear part of the O2 decay, the slopes were calculated and corrected for the medium drift for further statistic evaluation. All measurements were performed at least in triplicate. For bioenergetic characterization, the ATP synthase inhibitor Oligo (5 μM) and as positive control CCCP (0.7–5 μM) were used. Respiratory control ratio (RCR) was calculated from respiration rate in the presence of Oligo and compounds/uncoupler divided by the rate in the presence of Oligo.

O=[N+]([O-])c1ccc(O)c([N+](=O)[O-])c1 [2,4‐dinitrophenol, reference compound]
pKa value [1]: around 4

CCCCCC[C@H]1C(=O)O[C@H](C)[C@H](NC(=O)c2cccc(NC=O)c2O)C(=O)O[C@@H](C)[C@@H]1OC(=O)CC(C)C [AA, antimycin A, reference compound]
CM● formation (superoxide radicals) in LtP [2]: showed an increase

N#CC(C#N)=NNc1cccc(Cl)c1 [CCCP, carbonyl cyanide‐m‐chlorophenylhydrazone, reference compound]
Oligo‐inhibited respiration in LtP [3]: clear increase
